Laboratory results: the supplement of paper PMC10307832

Legend:
Assay in all cases: relative viability (nuclei count vs DMSO), 5 days (fraction); higher = more cells survive
[1] = compound: COc1cc2nc(N3CCCN(C)CC3)nc(NC3CCN(Cc4ccccc4)CC3)c2cc1OC + COc1cccc2cc(-c3nc([C@H]4CC[C@H](C(=O)O)CC4)n4ncnc(N)c34)[nH]c12 [OSI-027] (partner 0.5 µM)
Method in brief: (§1)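 Medians of duplicate plates are given as relative viability. That measure is the nuclei count in treated wells divided by the count in vehicle wells. Counts were taken on 4× images of lung cancer cell lines in 1536-well plates, 5 days after pin-tool dosing the day after seeding with one drug alone or a fixed anchor-drug dose plus five library-drug doses (not always all listed) in √10 steps.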

[2] = compound: COc1cc2nc(N3CCCN(C)CC3)nc(NC3CCN(Cc4ccccc4)CC3)c2cc1OC + O=C(CCCCCCC(=O)Nc1ccccc1)NO [Vorinostat] (partner 1 µM)
Method in brief: as §1

AZD6482 + Navitoclax = compound: Cc1cc([C@@H](C)Nc2ccccc2C(=O)O)c2nc(N3CCOCC3)cc(=O)n2c1 [AZD6482] + CC1(C)CCC(c2ccc(Cl)cc2)=C(CN2CCN(c3ccc(C(=O)NS(=O)(=O)c4ccc(N[C@H](CCN5CCOCC5)CSc5ccccc5)c(S(=O)(=O)C(F)(F)F)c4)cc3)CC2)C1 [Navitoclax] (partner 0.5 µM)
Method in brief: as §1

AZD6482 + Linsitinib = compound: Cc1cc([C@@H](C)Nc2ccccc2C(=O)O)c2nc(N3CCOCC3)cc(=O)n2c1 [AZD6482] + C[C@]1(O)C[C@@H](c2nc(-c3ccc4ccc(-c5ccccc5)nc4c3)c3c(N)nccn32)C1 [Linsitinib] (partner 1 µM)
Method in brief: as §1

Cell Line | relative viability ([1]; first compound 0.2 µM) | relative viability ([1]; first compound 0.6325 µM) | relative viability ([1]; first compound 2 µM) | relative viability ([1]; first compound 6.325 µM) | relative viability ([2]; first compound 0.2 µM) | relative viability ([2]; first compound 0.6325 µM) | relative viability ([2]; first compound 2 µM) | relative viability ([2]; first compound 6.325 µM) | relative viability (AZD6482 + Navitoclax; first compound 0.08 µM) | relative viability (AZD6482 + Navitoclax; first compound 0.253 µM) | relative viability (AZD6482 + Navitoclax; first compound 0.8 µM) | relative viability (AZD6482 + Navitoclax; first compound 2.53 µM) | relative viability (AZD6482 + Navitoclax; first compound 8 µM) | relative viability (AZD6482 + Linsitinib; first compound 0.08 µM) | relative viability (AZD6482 + Linsitinib; first compound 0.253 µM) | relative viability (AZD6482 + Linsitinib; first compound 0.8 µM) | relative viability (AZD6482 + Linsitinib; first compound 2.53 µM) | relative viability (AZD6482 + Linsitinib; first compound 8 µM)
NCI-H1944 | 0.428 | 0.465 | 0.307 | 0.398 | 0.58 | 0.597 | 0.512 | 0.517 | 1.02 | 0.953 | 1.03 | 0.887 | 0.821 | 0.929 | 0.834 | 0.922 | 0.688 | 0.622
NCI-H1975 | 0.785 | 0.693 | 0.744 | 0.776 | 0.397 | 0.677 | 0.797 | 0.654 | 0.919 | 1.05 | 1.17 | 0.856 | 0.786 | 0.748 | 0.938 | 0.874 | 0.739 | 0.592
NCI-H1993 | 0.534 | 0.57 | 0.529 | 0.553 | 0.778 | 0.798 | 0.855 | 0.661 | 0.779 | 0.784 |  |  | 0.654 | 0.759 | 0.775 |  |  | 0.654
NCI-H2009 | 0.681 | 0.531 | 0.784 | 0.29 | 0.803 | 0.762 | 0.767 | 0.569 | 1.11 | 1.14 | 1.23 | 0.757 | 0.96 | 0.911 | 1.18 | 1.16 | 0.68 | 0.795
NCI-H2023 | 0.363 | 0.508 | 0.364 | 0.126 | 0.565 | 0.63 | 0.509 | 0.0993 | 0.891 | 0.999 | 0.803 | 0.615 | 0.621 | 0.373 | 0.337 | 0.322 | 0.199 | 0.234
NCI-H2085 | 0.742 | 0.788 | 0.72 | 0.584 | 0.799 | 0.954 | 0.802 | 0.724 | 0.803 | 0.585 | 0.538 | 0.395 | 0.462 | 0.453 | 0.422 | 0.327 | 0.26 | 0.467
NCI-H2087 | 0.469 | 0.428 | 0.547 | 0.452 | 0.806 | 0.618 | 0.521 | 0.611 | 0.847 | 0.909 | 0.966 | 0.818 | 0.895 | 0.902 | 0.929 | 1.09 | 0.815 | 0.964
NCI-H2126 | 0.769 | 0.794 | 0.693 | 0.662 | 0.8 | 0.802 | 0.688 | 0.69 | 0.744 | 0.671 | 0.727 | 0.571 | 0.543 | 0.551 | 0.591 | 0.518 | 0.485 | 0.548
NCI-H2228 | 0.539 | 0.451 | 0.499 | 0.256 | 0.37 | 0.662 | 0.54 | 0.25 | 0.738 | 0.963 | 0.803 | 0.634 | 0.616 | 0.48 | 0.38 | 0.38 | 0.469 | 0.428
NCI-H2347 | 0.461 | 0.304 | 0.452 | 0.472 | 0.712 | 0.725 | 0.51 | 0.504 |  | 0.423 | 0.445 | 0.283 | 0.235 |  | 0.943 | 0.949 | 0.571 | 0.84
NCI-H2405 | 0.717 | 0.677 | 0.671 | 0.66 | 1.01 | 0.989 | 1.02 | 0.976 | 0.488 |  | 0.778 | 0.489 | 0.509 | 0.399 |  | 0.673 | 0.427 | 0.629
NCI-H3122 | 0.935 | 0.877 | 0.992 | 0.729 | 1.04 | 1.04 | 0.921 | 0.937 | 0.96 | 1.01 | 1.07 | 0.894 | 0.97 | 0.828 | 0.993 | 1.02 | 0.85 | 0.816
PC-3 [JPC-3] | 0.767 | 0.746 | 0.764 | 0.764 | 0.625 | 0.926 | 0.781 | 0.707 | 0.727 | 0.665 | 0.851 | 0.756 | 0.679 | 0.911 | 1.04 | 1.02 | 0.787 | 0.841
PC-14 | 0.758 | 0.734 | 0.733 | 0.0418 | 0.674 | 0.674 | 0.625 | 0.0432 | 0.926 | 1 | 1.04 | 0.879 | 0.96 | 0.93 | 0.966 | 1.02 | 0.675 | 0.736
RERF-LC-KJ | 0.527 | 0.586 | 0.573 | 0.383 | 0.61 | 0.704 | 0.703 | 0.589 | 0.584 | 0.854 | 0.802 | 0.52 | 0.874 | 0.757 | 0.814 | 0.822 | 0.764 | 0.784
SK-LU-1 | 0.358 | 0.302 | 0.36 | 0.179 | 0.832 | 0.747 | 0.844 | 0.641 |  | 0.74 | 1.04 | 0.834 | 0.93 |  | 0.905 | 1.1 | 0.886 | 0.912
SK-MES-1 | 0.61 | 0.56 | 0.536 | 0.218 | 1.02 | 1.04 | 1.22 | 0.472 | 1.08 | 1.17 | 0.923 | 0.493 | 0.572 | 0.873 | 1.01 | 0.608 | 0.394 | 0.393
SW 1573 | 0.564 | 0.787 | 0.551 | 0.254 | 0.704 | 0.574 | 0.684 | 0.199 | 0.887 | 0.86 | 0.941 | 0.56 | 0.653 | 0.66 | 0.678 | 0.493 | 0.443 | 0.572
